Test results: ChEMBL document CHEMBL3864146, “5-Alkyloxytryptamines are membrane-targeting, broad-spectrum antibiotics” (Bioorg Med Chem Lett, 2016)
In brackets after ≈: the same amount, converted by molar mass.

Experiments:
[1] = Cytotoxicity against HEK cells assessed as cell viability at 0.65 ug/ml after 48 hrs by CellTiter-Glo assay relative to control; assay type: toxicity, cell-based, HEK293; conditions: human, read-out: Activity
[2] = Cytotoxicity against HEK cells assessed as cell viability at 0.65 ug/ml after 24 hrs by CellTiter-Glo assay relative to control; assay type: toxicity, cell-based, HEK293; conditions: human, read-out: Activity
[3] = tested on: Morganella morganii; assay: Antibacterial activity against Morganella morganii after 16 to 18 hrs by micro-dilution method; assay type: functional
[4] = tested on: Escherichia coli; assay: Adjuvant activity assessed as potentiation of ciprofloxacin-induced antibacterial activity against Escherichia coli BW25113 at 0.5 times MIC after 16 to 18 hrs by checkerboard assay (reference value: 13 ng/ml); assay type: functional
[5] = tested on: Vibrio cholerae; assay: Antibacterial activity against Vibrio cholerae after 16 to 18 hrs by micro-dilution method; assay type: functional
[6] = tested on: Bacillus subtilis; assay: Antibacterial activity against Bacillus subtilis 168 after 16 to 18 hrs by micro-dilution method; assay type: functional; conditions: subsp. subtilis str. 168
[7] = Cytotoxicity against HEK cells assessed as cell viability at 1.3 ug/ml after 48 hrs by CellTiter-Glo assay relative to control; assay type: toxicity, cell-based, HEK293; conditions: human, read-out: Activity
[8] = tested on: Pseudomonas aeruginosa; assay: Antibacterial activity against Pseudomonas aeruginosa after 16 to 18 hrs by micro-dilution method; assay type: functional
[9] = Cytotoxicity against HEK cells assessed as cell viability at 2.6 ug/ml after 48 hrs by CellTiter-Glo assay relative to control; assay type: toxicity, cell-based, HEK293; conditions: human, read-out: Activity
[10] = Cytotoxicity against HEK cells assessed as cell viability at 1.3 ug/ml after 24 hrs by CellTiter-Glo assay relative to control; assay type: toxicity, cell-based, HEK293; conditions: human, read-out: Activity
[11] = tested on: Escherichia coli; assay: Adjuvant activity assessed as potentiation of chloramphenicol-induced antibacterial activity against Escherichia coli BW25113 at 0.25 times MIC after 16 to 18 hrs by checkerboard assay (reference value: 8 ng/ml); assay type: functional
[12] = tested on: Escherichia coli; assay: Adjuvant activity assessed as potentiation of rifampicin-induced antibacterial activity against Escherichia coli BW25113 at 0.25 times MIC after 16 to 18 hrs by checkerboard assay (reference value: 8 ng/ml); assay type: functional
[13] = tested on: Escherichia coli; assay: Adjuvant activity assessed as potentiation of tetracycline-induced antibacterial activity against Escherichia coli BW25113 at 0.25 times MIC after 16 to 18 hrs by checkerboard assay (reference value: 2 ng/ml); assay type: functional
[14] = tested on: Klebsiella pneumoniae; assay: Antibacterial activity against Klebsiella pneumoniae after 16 to 18 hrs by micro-dilution method; assay type: functional
[15] = tested on: Escherichia coli; assay: Antibacterial activity against Escherichia coli BW25113 after 16 to 18 hrs by micro-dilution method; assay type: functional
[16] = tested on: Escherichia coli; assay: Adjuvant activity assessed as potentiation of chloramphenicol-induced antibacterial activity against Escherichia coli BW25113 at 0.5 times MIC after 16 to 18 hrs by checkerboard assay (reference value: 8 ng/ml); assay type: functional
[17] = tested on: Salmonella typhimurium; assay: Antibacterial activity against Salmonella typhimurium after 16 to 18 hrs by micro-dilution method; assay type: functional, Salmonella enterica subsp. enterica serovar Typhimurium; conditions: Salmonella enterica
[18] = tested on: Acinetobacter baumannii; assay: Antibacterial activity against Acinetobacter baumannii after 16 to 18 hrs by micro-dilution method; assay type: functional
[19] = Cytotoxicity against HEK cells assessed as cell viability at 2.6 ug/ml after 24 hrs by CellTiter-Glo assay relative to control; assay type: toxicity, cell-based, HEK293; conditions: human, read-out: Activity
[20] = tested on: Escherichia coli; assay: Adjuvant activity assessed as potentiation of ciprofloxacin-induced antibacterial activity against Escherichia coli BW25113 at 0.25 times MIC after 16 to 18 hrs by checkerboard assay (reference value: 13 ng/ml); assay type: functional
[21] = tested on: Escherichia coli; assay: Adjuvant activity assessed as potentiation of rifampicin-induced antibacterial activity against Escherichia coli BW25113 at 0.5 times MIC after 16 to 18 hrs by checkerboard assay (reference value: 8 ng/ml); assay type: functional
[22] = tested on: Edwardsiella tarda; assay: Antibacterial activity against Edwardsiella tarda after 16 to 18 hrs by micro-dilution method; assay type: functional
[23] = tested on: Staphylococcus aureus; assay: Antibacterial activity against Staphylococcus aureus after 16 to 18 hrs by micro-dilution method; assay type: functional
[24] = tested on: Escherichia coli; assay: Antibacterial activity against tolC-deficient Escherichia coli BW25113 after 16 to 18 hrs by micro-dilution method; assay type: functional
[25] = tested on: Escherichia coli; assay: Adjuvant activity assessed as potentiation of tetracycline-induced antibacterial activity against Escherichia coli BW25113 at 0.5 times MIC after 16 to 18 hrs by checkerboard assay (reference value: 2 ng/ml); assay type: functional
[26] = tested on: Shigella boydii; assay: Antibacterial activity against Shigella boydii after 16 to 18 hrs by micro-dilution method; assay type: functional
[27] = tested on: Klebsiella aerogenes; assay: Antibacterial activity against Enterobacter aerogenes after 16 to 18 hrs by micro-dilution method; assay type: functional
[28] = Cytotoxicity against HEK cells assessed as cell viability at 14 ug/ml after 24 hrs by CellTiter-Glo assay relative to control; assay type: toxicity, cell-based, HEK293; conditions: human, read-out: Activity
[29] = tested on: Escherichia coli; assay: Induction of membrane permeabilization in Escherichia coli BW25113 at MIC after 15 mins by propidium iodide staining-based fluorescence microplate reader method relative to 50% ethanol; assay type: functional
[30] = Cytotoxicity against HEK cells assessed as cell viability at 6.9 ug/ml after 24 hrs by CellTiter-Glo assay relative to control; assay type: toxicity, cell-based, HEK293; conditions: human, read-out: Activity
[31] = Cytotoxicity against HEK cells assessed as cell viability at 14 ug/ml after 48 hrs by CellTiter-Glo assay relative to control; assay type: toxicity, cell-based, HEK293; conditions: human, read-out: Activity
[32] = Cytotoxicity against HEK cells assessed as cell viability at 6.9 ug/ml after 48 hrs by CellTiter-Glo assay relative to control; assay type: toxicity, cell-based, HEK293; conditions: human, read-out: Activity
[33] = Cytotoxicity against HEK cells assessed as cell viability at 3.5 ug/ml after 48 hrs by CellTiter-Glo assay relative to control; assay type: toxicity, cell-based, HEK293; conditions: human, read-out: Activity
[34] = Cytotoxicity against HEK cells assessed as cell viability at 3.5 ug/ml after 24 hrs by CellTiter-Glo assay relative to control; assay type: toxicity, cell-based, HEK293; conditions: human, read-out: Activity

CCCCCCCCCOc1cccc(CCN)c1
viability at 48 h, 0.65 ug/ml [1]: 58.1%
viability at 24 h, 0.65 ug/ml [2]: 72.7%
MIC [3]: 11 µg/mL (≈ 41.8 µM)
MIC [4]: 0.025 µg/mL
MIC [5]: 5.3 µg/mL (≈ 20.1 µM)
MIC [6]: 0.66 µg/mL (≈ 2.51 µM)
viability at 48 h, 1.3 ug/ml [7]: 31%
MIC [8]: 21 µg/mL (≈ 79.7 µM)
viability at 48 h, 2.6 ug/ml [9]: 1.8%
viability at 24 h, 1.3 ug/ml [10]: 60.5%
MIC [11]: 0.008 µg/mL
MIC [12]: 0.004 µg/mL
MIC [13]: 0.002 µg/mL
MIC [14]: 5.3 µg/mL (≈ 20.1 µM)
MIC [15]: 5.3 µg/mL (≈ 20.1 µM)
MIC [16]: 0.004 µg/mL
MIC [17]: 5.3 µg/mL (≈ 20.1 µM)
MIC [18]: 5.3 µg/mL (≈ 20.1 µM)
viability at 24 h, 2.6 ug/ml [19]: 3.4%
MIC [20]: 0.025 µg/mL
MIC [21]: 0.002 µg/mL
MIC [22]: 5.3 µg/mL (≈ 20.1 µM)
MIC [23]: 5.3 µg/mL (≈ 20.1 µM)
MIC [24]: 2.6 µg/mL (≈ 9.87 µM)
MIC [25]: 0.001 µg/mL
MIC [26]: 5.3 µg/mL (≈ 20.1 µM)
MIC [27]: 5.3 µg/mL (≈ 20.1 µM)

CCCCCCCCCCCCOc1ccc2[nH]cc(CCN)c2c1.Cl
MIC [3]: > 110 µg/mL
MIC [4]: 0.0008 µg/mL
viability at 24 h, 14 ug/ml [28]: 1.5%
MIC [5]: 28 µg/mL
MIC [6]: 1.7 µg/mL
Activity [29]: 10%
MIC [8]: > 110 µg/mL
MIC [11]: 0.001 µg/mL
viability at 24 h, 6.9 ug/ml [30]: 10.4%
MIC [12]: 0.001 µg/mL
MIC [13]: 0.001 µg/mL
MIC [14]: > 110 µg/mL
MIC [15]: 26 µg/mL
viability at 48 h, 14 ug/ml [31]: 0.2%
viability at 48 h, 6.9 ug/ml [32]: 2.6%
MIC [16]: 0.0005 µg/mL
MIC [17]: 28 µg/mL
MIC [18]: 28 µg/mL
MIC [20]: 0.013 µg/mL
MIC [21]: 0.00025 µg/mL
MIC [22]: > 110 µg/mL
viability at 48 h, 3.5 ug/ml [33]: 13.4%
MIC [23]: 3.4 µg/mL
MIC [24]: 6.9 µg/mL
MIC [25]: 0.00025 µg/mL
viability at 24 h, 3.5 ug/ml [34]: 26%
MIC [26]: 14 µg/mL
MIC [27]: > 110 µg/mL
